Measurements reported in US9475775B2, “Benzazepine dicarboxamide compounds” (Hoffmann-La Roche Inc., priority 2015, dated 2016).

What was measured:
human TLR8 = human TLR8 (Homo sapiens (Human), UniProt Q9NR97); assay: HEK-Blue human TLR8 cells, NF-κB SEAP reporter assay; format: cell-based; conditions: stimulation for 20 hours
From the text: (§1) For TLR8 and TLR7 activity testing, HEK-Blue human TLR8 or TLR7 cells (Invivogen, San Diego, Calif., USA) are used, respectively. These cells are designed for studying the stimulation of human TLR8 or TLR7 by monitoring the activation of NF-κB. A SEAP (secreted embryonic alkaline phosphatase) reporter gene is placed under the control of the IFN-b minimal promoter fused to five NF-κB and AP-1-binding sites. Therefore the reporter expression is regulated by the NF-κB promoter upon stimulation of human TLR8 or TLR7 for 20 hours. The cell culture supernatant SEAP reporter activity was determined using Quanti Blue kit (Invivogen, San Diego, Ca, USA) at a wavelength of 640 nm, a detection medium that turns purple/blue in the presence of alkaline phosphatase. EC50 values were determined using Activity Base analysis (ID Business Solution, Limited).

human TLR7 = human TLR7 (Homo sapiens (Human), UniProt Q9NYK1); assay: HEK-Blue human TLR7 cells, NF-κB SEAP reporter assay; format: cell-based; conditions: stimulation for 20 hours
human TLR7, sequence (Q9NYK1 27-1049): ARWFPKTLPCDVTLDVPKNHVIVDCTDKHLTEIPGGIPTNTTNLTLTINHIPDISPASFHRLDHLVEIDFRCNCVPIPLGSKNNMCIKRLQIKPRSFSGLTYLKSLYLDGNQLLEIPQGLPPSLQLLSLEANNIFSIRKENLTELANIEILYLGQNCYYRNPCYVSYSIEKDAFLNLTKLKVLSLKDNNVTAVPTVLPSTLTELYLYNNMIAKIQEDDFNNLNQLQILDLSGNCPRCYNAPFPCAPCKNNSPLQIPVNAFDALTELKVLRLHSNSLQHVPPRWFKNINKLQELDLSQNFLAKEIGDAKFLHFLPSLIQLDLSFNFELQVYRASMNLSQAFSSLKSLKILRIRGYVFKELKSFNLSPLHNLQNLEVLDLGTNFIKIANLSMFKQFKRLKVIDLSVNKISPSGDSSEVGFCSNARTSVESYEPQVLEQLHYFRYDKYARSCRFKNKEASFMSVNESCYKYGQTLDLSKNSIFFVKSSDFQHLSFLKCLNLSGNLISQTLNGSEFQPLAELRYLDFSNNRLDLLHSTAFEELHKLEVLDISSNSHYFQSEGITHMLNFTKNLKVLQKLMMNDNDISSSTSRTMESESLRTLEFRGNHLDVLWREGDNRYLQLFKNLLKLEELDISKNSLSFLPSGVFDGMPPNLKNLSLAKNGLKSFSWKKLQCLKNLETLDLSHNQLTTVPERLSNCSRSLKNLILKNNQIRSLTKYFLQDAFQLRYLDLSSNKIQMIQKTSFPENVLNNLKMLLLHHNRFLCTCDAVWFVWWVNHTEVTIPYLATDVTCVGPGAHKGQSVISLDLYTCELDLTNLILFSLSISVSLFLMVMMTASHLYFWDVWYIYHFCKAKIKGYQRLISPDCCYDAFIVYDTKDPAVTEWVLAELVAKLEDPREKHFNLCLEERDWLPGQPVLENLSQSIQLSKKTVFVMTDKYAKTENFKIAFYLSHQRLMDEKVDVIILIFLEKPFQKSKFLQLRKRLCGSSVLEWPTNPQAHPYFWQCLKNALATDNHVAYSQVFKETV
From the text: as §1

human TLR8, sequence (Q9NR97 27-1041): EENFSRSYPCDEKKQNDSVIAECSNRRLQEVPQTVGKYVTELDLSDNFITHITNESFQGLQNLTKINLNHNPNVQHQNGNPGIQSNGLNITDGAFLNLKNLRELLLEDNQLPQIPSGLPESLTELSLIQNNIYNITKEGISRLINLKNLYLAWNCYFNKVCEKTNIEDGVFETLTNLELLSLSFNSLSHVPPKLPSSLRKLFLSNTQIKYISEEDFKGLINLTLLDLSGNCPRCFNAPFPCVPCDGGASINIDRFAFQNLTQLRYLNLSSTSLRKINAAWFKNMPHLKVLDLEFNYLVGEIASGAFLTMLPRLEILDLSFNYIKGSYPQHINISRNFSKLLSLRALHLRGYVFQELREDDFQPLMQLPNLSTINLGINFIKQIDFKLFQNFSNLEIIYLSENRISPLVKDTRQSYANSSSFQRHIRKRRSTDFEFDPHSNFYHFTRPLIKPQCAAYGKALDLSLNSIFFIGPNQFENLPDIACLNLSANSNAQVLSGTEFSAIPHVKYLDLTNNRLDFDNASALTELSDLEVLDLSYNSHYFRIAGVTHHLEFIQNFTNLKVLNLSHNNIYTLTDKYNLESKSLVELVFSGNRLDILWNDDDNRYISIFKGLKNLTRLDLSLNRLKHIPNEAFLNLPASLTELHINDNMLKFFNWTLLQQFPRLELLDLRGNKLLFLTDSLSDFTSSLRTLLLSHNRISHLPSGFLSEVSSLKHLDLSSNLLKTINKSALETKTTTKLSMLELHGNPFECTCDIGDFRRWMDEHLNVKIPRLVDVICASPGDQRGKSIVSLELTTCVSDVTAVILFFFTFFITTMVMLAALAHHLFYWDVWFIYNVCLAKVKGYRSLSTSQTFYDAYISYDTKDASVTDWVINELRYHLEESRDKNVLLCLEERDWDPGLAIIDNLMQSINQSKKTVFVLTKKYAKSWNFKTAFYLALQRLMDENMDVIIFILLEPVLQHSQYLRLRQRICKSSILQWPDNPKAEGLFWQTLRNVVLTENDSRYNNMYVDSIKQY

| Structure (SMILES) | EC50 (human TLR8) | EC50 (human TLR7) |
| --- | --- | --- |
| CCCN(CCC)C(=O)C1=Cc2ccc(C(=O)Nc3ccc(CCCN)cc3)cc2N=C(N)C1 [Example 61, 2-Amino-N8-[4-(3-aminopropyl)phenyl]-N4,N4-dipropyl-3H-1-benzazepine-4,8-dicarboxamide] | 5 nM | > 100000 nM |
| CCCN(CCC)C(=O)C1=Cc2ccc(C(=O)Nc3cccc(CCCCN)c3)cc2N=C(N)C1 [Example 62] | 7 nM | > 100000 nM |
| CCCN(CCC)C(=O)C1=Cc2ccc(C(=O)Nc3ccc(F)c(CCN)c3)cc2N=C(N)C1 [Example 63, 2-Amino-N8-[3-(2-aminoethyl)-4-fluoro-phenyl]-N4,N4-dipropyl-3H-1-benzazepine-4,8-dicarboxamide] | 11 nM | > 100000 nM |
| CCCN(CCC)C(=O)C1=Cc2ccc(C(=O)Nc3cc(Cl)cc(CCN)c3)cc2N=C(N)C1 [Example 64, 2-Amino-N8-[3-(2-aminoethyl)-5-chloro-phenyl]-N4,N4-dipropyl-3H-1-benzazepine-4,8-dicarboxamide] | 29 nM | > 100000 nM |
| CCCCN(CCO)C(=O)C1=Cc2ccc(C(=O)Nc3cccc(C)c3)cc2N=C(N)C1 [Example 65, 2-Amino-N4-butyl-N4-(2-hydroxyethyl)-N8-(m-tolyl)-3H-1-benzazepine-4,8-dicarboxamide] | 6 nM | > 100000 nM |
| CCCN(CCC)C(=O)C1=Cc2ccc(C(=O)Nc3cncc(OCCN)c3)cc2N=C(N)C1 [Example 66, 2-Amino-N8-[5-(2-aminoethoxy)-3-pyridyl]-N4,N4-dipropyl-3H-1-benzazepine-4,8-dicarboxamide] | 31 nM | > 100000 nM |
| CCCN(CCC)C(=O)C1=Cc2ccc(C(=O)Nc3cncc(CNC(=O)OCc4ccccc4)c3)cc2N=C(N)C1 [Example 67, Benzyl N-[[5-[[2-amino-4-(dipropylcarbamoyl)-3H-1-benzazepine-8-carbonyl]amino]-3-pyridyl]methyl]carbamate] | 4 nM | > 100000 nM |
| CCCN(CCC)C(=O)C1=Cc2ccc(C(=O)Nc3cncc(/C=C/CN)c3)cc2N=C(N)C1 [Example 68, 2-Amino-N8-[5-[(E)-3-aminoprop-1-enyl]-3-pyridyl]-N4,N4-dipropyl-3H-1-benzazepine-4,8-dicarboxamide] | 8 nM | > 100000 nM |
| CCCN(CCC)C(=O)C1=Cc2ccc(C(=O)Nc3cncc(CCc4ccccc4)c3)cc2N=C(N)C1 [Example 69, 2-Amino-N8-[5-(2-phenylethyl)-3-pyridyl]-N4,N4-dipropyl-3H-1-benzazepine-4,8-dicarboxamide] | 8 nM | > 100000 nM |
| CCCN(CCC)C(=O)C1=Cc2ccc(C(=O)Nc3cncc(CCc4ccc(OC)cc4)c3)cc2N=C(N)C1 [Example 70, 2-Amino-N8-[5-[2-(4-methoxyphenyl)ethyl]-3-pyridyl]-N4,N4-dipropyl-3H-1-benzazepine-4,8-dicarboxamide] | 12 nM | > 100000 nM |
| CCCN(CCC)C(=O)C1=Cc2ccc(C(=O)Nc3cncc(CCc4ccc(CN)cc4)c3)cc2N=C(N)C1 [Example 71, 2-Amino-N8-[5-[2-[4-(aminomethyl)phenyl]ethyl]-3-pyridyl]-N4,N4-dipropyl-3H-1-benzazepine-4,8-dicarboxamide] | 29 nM | > 100000 nM |
| CCCN(CCC)C(=O)C1=Cc2ccc(C(=O)Nc3cncc(CCCCCN)c3)cc2N=C(N)C1 [Example 72, 2-Amino-N8-[5-(5-aminopentyl)-3-pyridyl]-N4,N4-dipropyl-3H-1-benzazepine-4,8-dicarboxamide] | 25 nM | > 100000 nM |
| CCCN(CCC)C(=O)C1=Cc2ccc(C(=O)Nc3cncc(CCc4cccc(OC)c4)c3)cc2N=C(N)C1 [Example 73, 2-Amino-N8-[5-[2-(3-methoxyphenyl)ethyl]-3-pyridyl]-N4,N4-dipropyl-3H-1-benzazepine-4,8-dicarboxamide] | 10 nM | > 100000 nM |
| CCCN(CCC)C(=O)C1=Cc2ccc(C(=O)Nc3cncc(CCCCCCN)c3)cc2N=C(N)C1 [Example 74, 2-Amino-N8-[5-(6-aminohexyl)-3-pyridyl]-N4,N4-dipropyl-3H-1-benzazepine-4,8-dicarboxamide] | 27 nM | > 100000 nM |
| CCCN(CCC)C(=O)C1=Cc2ccc(C(=O)Nc3ccc(CCCN)nc3)cc2N=C(N)C1 [Example 75, 2-Amino-N8-[6-(3-aminopropyl)-3-pyridyl]-N4,N4-dipropyl-3H-1-benzazepine-4,8-dicarboxamide] | 10 nM | > 100000 nM |
| CCCN(CCC)C(=O)C1=Cc2ccc(C(=O)Nc3cncc(CCCCN)c3)cc2N=C(N)C1 [Example 76, 2-Amino-N8-[5-(4-aminobutyl)-3-pyridyl]-N4,N4-dipropyl-3H-1-benzazepine-4,8-dicarboxamide] | 24 nM | > 100000 nM |
| CCCN(CCC)C(=O)C1=Cc2ccc(C(=O)Nc3ccc(CCCCN)nc3)cc2N=C(N)C1 [Example 77, 2-Amino-N8-[6-(4-aminobutyl)-3-pyridyl]-N4,N4-dipropyl-3H-1-benzazepine-4,8-dicarboxamide] | 8 nM | > 100000 nM |
| CCCN(CCC)C(=O)C1=Cc2ccc(C(=O)Nc3cncc(CN(C)C)c3)cc2N=C(N)C1 [Example 78, 2-Amino-N8-[5-[(dimethylamino)methyl]-3-pyridyl]-N4,N4-dipropyl-3H-1-benzazepine-4,8-dicarboxamide] | 12 nM | > 100000 nM |
| CCCN(CC1CC1)C(=O)C1=Cc2ccc(C(=O)Nc3cncc(OCC)c3)cc2N=C(N)C1 [Example 79, 2-Amino-N4-(cyclopropylmethyl)-N8-(5-ethoxy-3-pyridyl)-N4-propyl-3H-1-benzazepine-4,8-dicarboxamide] | 2 nM | 31000 nM |
| CCCN(CCC)C(=O)C1=Cc2ccc(C(=O)Nc3cncc(CCN)c3)cc2N=C(N)C1 [Example 80, 2-Amino-N8-[5-(2-aminoethyl)-3-pyridyl]-N4,N4-dipropyl-3H-1-benzazepine-4,8-dicarboxamide] | 17 nM | > 100000 nM |
